Data published in patent US20180312539A1, “METHODS FOR PREPARING HIGH THROUGHPUT PEPTIDOMIMETICS, ORALLY BIOAVAILABLE DRUGS AND COMPOSITIONS CONTAINING SAME” (University of Southern California, priority 2011, published 2018).

Assays:
proteinase K = proteinase K (Parengyodontium album, UniProt P06873)
Method: Immobilized chymotrypsin and proteinase K purchased from Sigma. 250 nmoles of peptide in DMSO were added to 50 mM sodium phosphate buffer (pH=8.0) with a final DMSO concentration of 2%. […] The graph was generated by fitting the data to a one phase exponential decay equation (GraphPad Prism 5.0).
Protease resistance enhancement was then tested. The simplest solution for enhancing protease resistance would be the removal of amino acids recognized by protease K and chymotrypsin.
Next the role of each of the N-methyl alanines was analyzed independently. […] For example sequence modifications, including N-methylation would be accomplished one amino acid at a time, walking the peptide from low protease stability to high stability. Whether this is a viable approach for making a peptide like SUPR was investigated. Towards that end, Applicants walked back from SUPR peptide to something closer to cycGIBP, and to determine if there was a gradual decrease in protease resistance. Towards that end, three peptides were synthesized. Two of them contained only one NMA (alanine was substituted for NMA), and the other had no NMA. It was hypothesized that if one could walk back to cycGIBP, then one would expect the loss of a single N-methyl to have some effect on reducing protease resistance, but to still be better than cycGIBP.

Gαi1 = molecular target: T1, Gαi1 (Homo sapiens, UniProt P63096); experiment: TNT pulldown specificity analysis with radiolabeled Gα subunits; assay type: binding; settings: C-terminally biotinylated peptide on NeutrAvidin-agarose
T1 construct: made in house; host or cells: TNT (coupled in vitro transcription/translation), radiolabeled
T1 sequence (P63096 whole entry): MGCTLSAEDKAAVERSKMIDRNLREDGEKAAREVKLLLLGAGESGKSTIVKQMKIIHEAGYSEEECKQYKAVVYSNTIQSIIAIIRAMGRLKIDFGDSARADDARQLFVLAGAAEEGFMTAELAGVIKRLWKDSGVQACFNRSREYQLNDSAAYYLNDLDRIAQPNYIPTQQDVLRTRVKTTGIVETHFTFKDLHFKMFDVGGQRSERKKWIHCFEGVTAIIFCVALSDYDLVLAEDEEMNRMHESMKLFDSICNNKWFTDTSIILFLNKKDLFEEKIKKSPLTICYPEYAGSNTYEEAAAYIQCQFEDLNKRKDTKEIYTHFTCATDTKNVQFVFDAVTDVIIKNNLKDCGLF
Method: TNT pulldown experiments were carried out as previously described in Stoop and Craik (2003) Nat. Biotech 21:1063. […] Control NeutrAvidin-agarose was treated with DMSO alone. Binding reactions proceeded for 1 h at 4° C. followed by filtration and washing with 1× selection buffer. The matrix was analyzed by scintillation counting, and the percent bound was determined by the matrix counts divided by the total counts as determined by TCA precipitation. […] The peptide was immobilized on NeutrAvidin-agarose and used to pull down radiolabeled protein. […] This was true both for specificity within the Gα family as well as state specificity of Gαi1. In fact, there was a small enhancement of specificity for the target Gαi1 over a protein with nearly 85% sequence similarity, Gαi2. […] The ability to retain or enhance selectivity for a desired target is of tremendous importance for therapeutic and diagnostic development.

[1] = mouse, iv
Method: 200 μL of peptide was administered by IV injection into the tail vein of C57BL6 mice at a dose of 10 mg/kg. 50 μL blood samples were taken at various time points by orbital bleeding using heparin coated capillary tubes and isoflurane for anesthesia. Samples are diluted to 600 μLin TE buffer (pH=8.0) then filtered by centrifugation through a 3000 MWCO filter. The flowthrough was analyzed on a Shimadzu RF-5301 PC fluorometer. Time points were integrated and analyzed using Prism 5.0 software.
To that end mice were administered peptide conjugated to fluorescein by IV injection into the tail vein. Blood samples were taken by orbital bleeding. Blood peptide concentration was determined by comparing fluorescence to a 15 minute time point.

Human microsome digests = assay type: in vitro ADME
Method: Pooled, mixed gender human microsomes containing cytochrome P450's were obtained from Xenotech. 100 μL of microsomes were added to 500 of PBS buffer containing 250 nmoles of peptide with 1% DMSO. 50 μL aliquots were removed at various time points and worked up in the same manner as the human serum digests.
Another vital area for the in vivo processing of drugs is the liver. All blood is eventually filtered through the liver, where various types of enzymes functionalize drugs for the purpose of excretion. […] These enzymes are largely involved in the oxidation of drugs, and can be found on the […]. Human liver microsomes are functional liver extract containing cytochrome P450s. Therefore half-life of modification of peptides by cytochrome P450s from exposure to human microsomes was examined. The results were similar to the human serum result in that both cyclization and N-methylation were necessary for significant enhancement of resistance to modification. […] This is interesting because the trait of protease resistance, not resistance to cytochrome P450 modification was a selection criteria.
A similar experiment was performed analyzing protease resistance to cytochrome P450 degradation. Peptide was incubated with human liver microsomes at 37° C. All peptides were highly protease resistant. […]

chymotrypsin = molecular target: T2, chymotrypsin (Bos taurus, UniProt P00766); experiment: Protease resistance experiment, chymotrypsin digest; assay type: in vitro ADME
T2 construct: purchased Sigma
Method: Immobilized chymotrypsin and proteinase K purchased from Sigma.
Protease resistance enhancement was then tested.
Towards that end, three peptides were synthesized. […] The effects were dramatic and surprising.

Human serum digests = assay type: in vitro ADME; settings: reconstituted human serum, 37° C
Method: (§1) Delipidated/lyophilized human serum was purchased from Thermo Scientific and reconstituted as per manufacturer's instructions. 250 nmoles of peptide in 50 μLs of sodium phosphate buffer (pH=8.0) with 10% DMSO was added to 1 mL of reconstituted serum and incubated at 37° C. 100 μL aliquots were taken at various time points and quenched in 300 μLs of acetonitrile. Samples were spun down and decanted to remove precipitate followed by dilution in water to 1.5 mLs. Samples were then analyzed by HPLC as described in the protease resistance experiment.
as §1, with “μL” for “μLs”, “mLs.” for “mLs. Samples were then analyzed by HPLC as described in the protease resistance experiment.”
The human serum and human microsome stability of the Gαi1 binding SUPR peptide ([…] (SEQ ID NO: 7)) were compared to the peptides ability to bind to Her-2. Beginning with the human serum analysis, peptides were digested with 95% human serum at 37° C. Analysis was performed by HPLC. […] Therefore, intact peptide is only completely unmodified peptide. Digestions of SUPR, HMP, and PMP are show have lives very similar to SUPR. Digestion of PMP2 is in progress. Without being bound by theory, Applicants theorize that the fitting for HMP may have produced an artificially low half-life.

proteinase K, sequence (P06873 106-384): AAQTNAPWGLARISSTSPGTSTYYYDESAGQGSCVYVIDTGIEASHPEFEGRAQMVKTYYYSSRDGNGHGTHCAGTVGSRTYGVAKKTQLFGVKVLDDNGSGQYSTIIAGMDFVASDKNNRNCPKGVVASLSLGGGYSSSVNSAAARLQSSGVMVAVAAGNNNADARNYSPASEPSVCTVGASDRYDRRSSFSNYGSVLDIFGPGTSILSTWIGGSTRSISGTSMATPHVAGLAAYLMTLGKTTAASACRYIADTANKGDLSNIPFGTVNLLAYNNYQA

With `CSCC[C@@H]1NC(=O)CCCC(=O)NCCCC[C@@H](C(N)=O)NC(=O)[C@H](CO)NC(=O)[C@H](Cc2c[nH]c3ccccc23)NC(=O)[C@H](CCC(N)=O)NC(=O)[C@H](C)N(C)C(=O)[C@H](Cc2ccc(O)cc2)NC(=O)[C@H](CCC(=O)O)NC(=O)[C@H](Cc2ccc(O)cc2)NC(=O)[C@H](C)N(C)C(=O)[C@H](Cc2ccc(O)cc2)NC(=O)[C@H](Cc2ccccc2)NC1=O` [cycSUPR] the “fold more resistant to proteinase K” value (proteinase K) was “approximately 5200 fold”, the “digest sites found from proteinase K” value (proteinase K; seven theoretical digest sites) was 1 and the “specificity within the Gα family and state specificity of Gαi1” value (Gαi1) was “retained specificity of its parent molecule”. For the same compound, the “fold increase in in vivo half-life over cycGIBP” value [1] was “roughly 35 fold”, the “resistance to cytochrome P450 degradation” value (Human microsome digests; human liver microsomes, 37° C (Experiment No. 4)) was “more preotease resistant than the Her-2 binding peptides” and the “stability to human liver microsomes (cytochrome P450s)” value (Human microsome digests; versus cycGIBP or linSUPR) was “nearly an order of magnitude increase in stability”. For the same compound, the “fold more resistant to chymotrypsin” value (chymotrypsin; compared to CycGIBP) was roughly 200 fold, the “digest sites found from chymotrypsin” value (chymotrypsin; five theoretical digest sites) was “two” and the half-life (Human serum digests) was 160 h.
